One data set in a line: Residual moisture. The data set is classed as physicochemical.
Data set [1] is classed as physicochemical. The note with it: solid salt storage; for degradation at 45° C. after 60 days: 1440 h; for degradation at 45° C. after 120 days: 2880 h; for degradation at 45° C. after 180 days: 4320 h; for degradation at 45° C. after 240 days: 5760 h; for degradation at 45° C. after 360 days: 8640 h. As to the method:
Stability tests were carried out on the salts prepared in the described manner, by keeping the product in an oven temperature controlled at 45° C. and determining the percentage of residual salt at fixed times. The tests were carried out in comparison with SAM.nHCl salts in which n=1,2 and 3, prepared by the known method (U.S. Pat. No. 2,969,353), and in comparison with SAM.nH2 SO4 salts in which n=0.5,1 and 1.5, also prepared by the known method (West German patent application No. 1,803,978).
The following tables show the percentages of decomposed salt at the times indicated:
Analytical conditions used:
SAM retention time: about 400 seconds.

A short description of another data set: physchem. The conditions noted are these: water.
For data set [2] the following is noted: prior-art salts; cited from earlier work.
A short description of data set [3]: Wide pharmacological screening trial. The note with it: independent of the anion bonded to the SAM. The data set is classed as in vivo. An excerpt: It was established that the activity of the new salts depends substantially on the capacity of the SAM^+ ion released in the organism to act as a donor of methyl groups, as the natural substrate of a large number of transmethylase enzymes which catalyse fundamental reactions of the lipid, protide and glucide metabolism.

Where [4] appears, read: Tables 1-4, salts lyophilised without support.

Bounds are passed on as bounds.

In general, solubility refers to the concentration that dissolves in the medium under given conditions.

As for `C[S+](CCC(N)C(=O)[O-])CC1OC(n2cnc3c(N)ncnc32)C(O)C1O` (stereo not drawn) [SAM.1.5H2 SO4.nHCl, n=1], the residual moisture in “Residual moisture” (setting [4]) is 1%. In data set [1], the “degradation at 45° C. after 60 days” value was 5%, the “degradation at 45° C. after 120 days” value was determined as 10%, the “degradation at 45° C. after 180 days” value was found to be 14% and the “degradation at 45° C. after 240 days” value was 17%. The “degradation at 45° C. after 360 days” value in data set [1] is listed as 20%.

As to `C[S+](CCC(N)C(=O)[O-])CC1OC(n2cnc3c(N)ncnc32)C(O)C1O` (stereo not drawn) [SAM.2HCl.nH2 SO4, n=2], the residual moisture in the data set “Residual moisture” (setting [4]) was determined as 2%. Moreover, in data set [1], the “degradation at 45° C. after 60 days” value was found to be 5%, the “degradation at 45° C. after 120 days” value is listed as 10%, the “degradation at 45° C. after 180 days” value is recorded as 14% and the “degradation at 45° C. after 240 days” value came to 17%. Further, the “degradation at 45° C. after 360 days” value in data set [1] is 20%.

With `C[S+](CCC(N)C(=O)[O-])CC1OC(n2cnc3c(N)ncnc32)C(O)C1O` (stereo not drawn) [SAM.nHCl, n=1, reference compound], the residual moisture in the data set “Residual moisture” (setting [4]) is listed as 0.2%. Further, in data set [1], the “degradation at 45° C. after 60 days” value was determined as 100%, the “degradation at 45° C. after 120 days” value came out at 100%, the “degradation at 45° C. after 180 days” value is reported as 100% and the “degradation at 45° C. after 240 days” value was found to be 100%. Moreover, the “degradation at 45° C. after 360 days” value in data set [1] is 100%.

In the case of `C[S+](CCC(N)C(=O)[O-])CC1OC(n2cnc3c(N)ncnc32)C(O)C1O` (stereo not drawn) [SAM.2.5H2 SO4], in the data set “physchem”, the solubility is greater than 200 mg/mL. In addition, the residual moisture in “Residual moisture” (Tables 1-4, salts lyophilised without support, listed as SAM.nH2 SO4, n=3.5) stood at 1.5%. Besides, in data set [1], the “degradation at 45° C. after 120 days” value came out at 1.5%, the “degradation at 45° C. after 180 days” value is 3%, the “degradation at 45° C. after 240 days” value is given as 4.5% and the “degradation at 45° C. after 360 days” value was found to be 5%.

For the compound `C[S+](CCC(N)C(=O)[O-])CC1OC(n2cnc3c(N)ncnc32)C(O)C1O` (stereo not drawn) [SAM.4HCl.0.4H2 O], the residual moisture in the data set “Residual moisture” (Tables 1-4, salts lyophilised without support, listed as SAM.nHCl, n=4) is listed as 1%. Further, in data set [1], the “degradation at 45° C. after 60 days” value is 5%, the “degradation at 45° C. after 120 days” value stood at 10%, the “degradation at 45° C. after 180 days” value stood at 14% and the “degradation at 45° C. after 240 days” value was 17%. For the same compound, the “degradation at 45° C. after 360 days” value in data set [1] is 20%.

As for `C[S+](CCC(N)C(=O)[O-])CC1OC(n2cnc3c(N)ncnc32)C(O)C1O` (stereo not drawn) [SAM.6HCl.0.7H2 O], in “Residual moisture” (Tables 1-4, salts lyophilised without support, listed as SAM.nHCl, n=6), the residual moisture was determined as 2%. In data set [1], the “degradation at 45° C. after 60 days” value is reported as 5%, the “degradation at 45° C. after 120 days” value is 10%, the “degradation at 45° C. after 180 days” value turned out to be 14% and the “degradation at 45° C. after 240 days” value stood at 17%. Besides, the “degradation at 45° C. after 360 days” value in data set [1] was 20%.

`C[S+](CCC(N)C(=O)[O-])CC1OC(n2cnc3c(N)ncnc32)C(O)C1O` (stereo not drawn) [SAM.2HCl.nH2 SO4, n=1]: the residual moisture in the data set “Residual moisture” (setting [4]) is recorded as 1%. Besides, in data set [1], the “degradation at 45° C. after 60 days” value came out at 5%, the “degradation at 45° C. after 120 days” value turned out to be 10%, the “degradation at 45° C. after 180 days” value is on record as 14% and the “degradation at 45° C. after 240 days” value amounted to 17%. Besides, the “degradation at 45° C. after 360 days” value in data set [1] is 20%.

`C[S+](CCC(N)C(=O)[O-])CC1OC(n2cnc3c(N)ncnc32)C(O)C1O` (stereo not drawn) [SAM.nHCl, n=2, reference compound]: the residual moisture in the data set “Residual moisture” (setting [4]) is on record as 0.5%. Also, in data set [1], the “degradation at 45° C. after 60 days” value is given as 80%, the “degradation at 45° C. after 120 days” value worked out at 100%, the “degradation at 45° C. after 180 days” value was determined as 100% and the “degradation at 45° C. after 240 days” value came out at 100%. The “degradation at 45° C. after 360 days” value in data set [1] was 100%.

As to `C[S+](CCC(N)C(=O)[O-])CC1OC(n2cnc3c(N)ncnc32)C(O)C1O` (stereo not drawn) [SAM.nH2 SO4, n=1, reference compound], in the data set “Residual moisture” (setting [4]), the residual moisture was found to be 0.5%. For the same compound, in data set [1], the “degradation at 45° C. after 60 days” value stood at 80%, the “degradation at 45° C. after 120 days” value was 100%, the “degradation at 45° C. after 180 days” value turned out to be 100% and the “degradation at 45° C. after 240 days” value is recorded as 100%. The “degradation at 45° C. after 360 days” value in data set [1] is 100%.

For the compound `C[S+](CCC(N)C(=O)[O-])CC1OC(n2cnc3c(N)ncnc32)C(O)C1O` (stereo not drawn) [SAM.2H2 SO4.0.4H2 O], the residual moisture in the data set “Residual moisture” (Tables 1-4, salts lyophilised without support, listed as SAM.nH2 SO4, n=2) was found to be 1%. In addition, in data set [1], the “degradation at 45° C. after 60 days” value was 5%, the “degradation at 45° C. after 120 days” value is 10%, the “degradation at 45° C. after 180 days” value was 14% and the “degradation at 45° C. after 240 days” value is recorded as 17%. Also, in data set [1], the “degradation at 45° C. after 360 days” value is 20%.

In the case of `C[S+](CCC(N)C(=O)[O-])CC1OC(n2cnc3c(N)ncnc32)C(O)C1O` (stereo not drawn) [SAM.1.5H2 SO4.nHCl, n=3], the residual moisture in “Residual moisture” (setting [4]) came to 2%. Also, in data set [1], the “degradation at 45° C. after 60 days” value worked out at 5%, the “degradation at 45° C. after 120 days” value came to 10%, the “degradation at 45° C. after 180 days” value was 14% and the “degradation at 45° C. after 240 days” value is reported as 17%. The “degradation at 45° C. after 360 days” value in data set [1] is on record as 20%.

Turning to `C[S+](CCC(N)C(=O)[O-])CC1OC(n2cnc3c(N)ncnc32)C(O)C1O` (stereo not drawn) [SAM.nH2 SO4, n=0.5, reference compound], the residual moisture in “Residual moisture” (setting [4]) is listed as 0.2%. Besides, in data set [1], the “degradation at 45° C. after 60 days” value came out at 100%, the “degradation at 45° C. after 120 days” value is on record as 100%, the “degradation at 45° C. after 180 days” value is on record as 100% and the “degradation at 45° C. after 240 days” value came out at 100%. The “degradation at 45° C. after 360 days” value in data set [1] is reported as 100%.

On to `C[S+](CCC(N)C(=O)[O-])CC1OC(n2cnc3c(N)ncnc32)C(O)C1O` (stereo not drawn) [triparatoluene sulphonate, SAM triparatoluene sulphonate], for which the “temperature up to which the salt is stable” value in data set [2] was “up to 25 °C”.

For the compound `C[S+](CCC(N)C(=O)[O-])CC1OC(n2cnc3c(N)ncnc32)C(O)C1O` (stereo not drawn) [SAM.1.5H2 SO4.nHCl, n=2], the residual moisture in “Residual moisture” (setting [4]) came to 1.5%. Besides, the residual moisture in the data set “Residual moisture” (Tables 1-4, salts lyophilised without support, listed as SAM.2HCl.nH2 SO4, n=1.5) was 1.5%. Moreover, in data set [1], the “degradation at 45° C. after 120 days” value amounted to 1.5%, the “degradation at 45° C. after 180 days” value stood at 3%, the “degradation at 45° C. after 240 days” value is given as 4.5% and the “degradation at 45° C. after 360 days” value is 5%.

With `C[S+](CCC(N)C(=O)[O-])CC1OC(n2cnc3c(N)ncnc32)C(O)C1O` (stereo not drawn) [SAM.5HCl], the “activity and toxicity characteristics” value in data set [3] was “highly interesting activity and toxicity characteristics”. Further, the residual moisture in “Residual moisture” (Tables 1-4, salts lyophilised without support, listed as SAM.nHCl, n=5) is 1.5%. For the same compound, in the data set “Residual moisture” (lyophilised without support, with mannitol or with Aerosil), the residual moisture worked out at 1.5%. Besides, in data set [1], the “degradation at 45° C. after 120 days” value was 1.5%, the “degradation at 45° C. after 180 days” value was found to be 3%, the “degradation at 45° C. after 240 days” value stood at 4.5% and the “degradation at 45° C. after 360 days” value was determined as 5%.

In the case of `C[S+](CCC(N)C(=O)[O-])CC1OC(n2cnc3c(N)ncnc32)C(O)C1O` (stereo not drawn) [SAM.2HCl.nH2 SO4, n=0.5, reference compound], the residual moisture in “Residual moisture” (setting [4]) is 0.8%. For the same compound, in data set [1], the “degradation at 45° C. after 60 days” value is 30%, the “degradation at 45° C. after 120 days” value is recorded as 60%, the “degradation at 45° C. after 180 days” value came out at 80% and the “degradation at 45° C. after 240 days” value is 100%. Also, the “degradation at 45° C. after 360 days” value in data set [1] is 100%.

As for `C[S+](CCC(N)C(=O)[O-])CC1OC(n2cnc3c(N)ncnc32)C(O)C1O` (stereo not drawn) [SAM.3H2 SO4.0.7H2 O], in the data set “Residual moisture” (Tables 1-4, salts lyophilised without support, listed as SAM.nH2 SO4, n=3), the residual moisture is on record as 2%. Also, in data set [1], the “degradation at 45° C. after 60 days” value was 5%, the “degradation at 45° C. after 120 days” value was 10%, the “degradation at 45° C. after 180 days” value is recorded as 14% and the “degradation at 45° C. after 240 days” value was found to be 17%. Also, the “degradation at 45° C. after 360 days” value in data set [1] is 20%.

`C[S+](CCC(N)C(=O)[O-])CC1OC(n2cnc3c(N)ncnc32)C(O)C1O` (stereo not drawn) [disulphatediparatoluene sulphonate, SAM disulphatediparatoluene sulphonate]: in data set [2], the “temperature up to which the salt is stable” value is “up to 45 °C”.

Consider `C[S+](CCC(N)C(=O)[O-])CC1OC(n2cnc3c(N)ncnc32)C(O)C1O` (stereo not drawn) [SAM.nH2 SO4, n=1.5, reference compound], for which the residual moisture in “Residual moisture” (setting [4]) is listed as 0.8%. Also, in data set [1], the “degradation at 45° C. after 60 days” value turned out to be 30%, the “degradation at 45° C. after 120 days” value is recorded as 60%, the “degradation at 45° C. after 180 days” value is given as 80% and the “degradation at 45° C. after 240 days” value stood at 100%. Also, in data set [1], the “degradation at 45° C. after 360 days” value was 100%.

In the case of `C[S+](CCC(N)C(=O)[O-])CC1OC(n2cnc3c(N)ncnc32)C(O)C1O` (stereo not drawn) [SAM.nHCl, n=3, reference compound], in “Residual moisture” (setting [4]), the residual moisture was 0.8%. In data set [1], the “degradation at 45° C. after 60 days” value was found to be 30%, the “degradation at 45° C. after 120 days” value was 60%, the “degradation at 45° C. after 180 days” value amounted to 80% and the “degradation at 45° C. after 240 days” value was found to be 100%. For the same compound, the “degradation at 45° C. after 360 days” value in data set [1] amounted to 100%.

Source of the values: patent publication US4543408A, “Stable S-adenosylmethionine salts, the process for their preparation, and therapeutic compositions which contain them as active principle” (Bioresearch S.p.A., priority 1981, dated 1985).
